Assay results from patent publication US6420605B1, “Benzamidoxim derivatives, intermediate products and methods for preparing and using them as fungicides” (BASF Aktiengesellschaft, priority 1997, dated 2002).

Tested on: powdery mildew of wheat (Erysiphe graminis f.sp.tritici)
Assay: Efficacy against powdery mildew of wheat (protective spray, greenhouse)
Type: in vivo
Details: wheat seedlings cv. Frühgold sprayed 24 hours before dusting with spores, after 7 days, untreated plants 80%
Protocol: Leaves of wheat seedlings cv. “Frühgold” grown in pots were sprayed to runoff point with aqueous preparation of active ingredient made with a stock solution composed of 10% active ingredient, 63% cyclohexanone and 27% emulsifier and, 24 hours after the spray coating had dried on, dusted with spores of powdery mildew of wheat (Erysiphe graminis f.sp.tritici). The test plants were subsequently placed in the greenhouse at from 20 to 22° C. and a relative atmospheric humidity of 75 to 80%. After 7 days, the extent of the mildew development was determined visually in % of the total leaf area.

[1] = Example 3, aqueous preparation comprising 63 ppm active ingredient

Compound | extent of the mildew development determined visually in % of the total leaf area [1] | extent of the mildew development determined visually in % of the total leaf area (Example 4, concentration not given)
C=CCCON=C(NC(=O)Cc1ccccc1)c1c(F)cccc1OC(F)F [I.3, N-Phenylacetyl-2-difluoromethoxy-6-fluorobenzamide O-allylmethyl oxime] | free from disease | 
O=C(Cc1ccccc1)NC(=NOCC1CC1)c1c(F)cccc1OC(F)F [I.6, N-Phenylacetyl-2-difluoromethoxy-6-fluorobenzamide O-cyclopropylmethyl oxime] | free from disease | 
N#Cc1c(F)cccc1OC(F)F [II.1, 2-Difluoromethoxy-6-fluorobenzonitrile] |  | free from disease
